{"source": "patent US20040106582A1", "about": "“Use of mglur5 antagonists for the treatment of pruritic conditions” (priority 2001, published 2004)", "key": {"[1]": {"system": "magnesium deficiency-induced dermatosis in rat", "test": "model of magnesium deficiency-induced dermatosis in rat", "type": "in vivo", "settings": "male hairless rats on low-magnesium diet, oral treatment at 6 mg/kg/day, 5 consecutive days", "text": "Activity of mGluR5 antagonists as antipruritics according to the invention is evidenced for example in a model of magnesium deficiency-induced dermatosis in rat. This dermatosis is characterised by a transient erythematous maculopapular rash associated with a severe generalised pruritus. The animals scratch and bite themselves causing excoriations and wounds on the head and trunk (Neckermann G., Bavandi A., Meingassner J. G., Br. J. Dermatol; 2000; 142: 669-679). According to this model, male hairless rats (Ico:OFA hr/hr) obtained from Iffa Credo (Lyon, France) at an age of 3 weeks are maintained with a diet low in magnesium (C10350, Altromin, Lage, Germany) and demineralised water. After onset of symptoms, the test compound is applied orally to 5 rats per group on 5 consecutive days. Control animals are treated similarly with the vehicle alone. Efficacy is assessed by clinical examination and semiquantitative assessment of skin lesions. The intensity and extend of the erythematous maculopapular rash is scored with 0 (not present) to 4 (most severe changes, involvement of the whole trunk). The intensity of pruritus is evaluated by the scoring of excoriations at the head, shoulders, lateral abdomen/flanks and caudal dorsal trunk with 0 (not present), 1 (few lesions) or […] (numerous lesions) resulting in a combined maximal score of 12 per animal. […]"}, "[2]": {"system": "itch induced in mice by Compound 48/80", "test": "model of itch induced in mice by injection of the pruritic agent Compound 48/80", "type": "in vivo", "settings": "C57BL/6 mice, 30 μg/10 μl s.c. Compound 48/80, oral administration of 3-30 mg/kg and 10-100 mg/kg, 30 min prior, observed 30 minutes", "method": "Experiments are carried out on adult female and male C57BL/6 mice (25-30 g). Individual mice receive the test compound p.o. (a vehicle alone for control animals) 30 min. prior to subcutaneous injections of the above mentioned pruritic agent into the dorsal neck region and are then placed into a clear Perspex box. A maximum of 3 mice are closely and continuously observed by an experimenter for 30 minutes following injection. ‘Scratching episodes’ are defined as scratching focused at the site of injection using the hind paws, and differentiated from grooming behaviour that also involves licking and is systematically directed over all body regions. The duration of the itch behaviour is recorded by using a keyboard linked to three stop-clocks."}}, "data": [{"smiles": "Cc1cccc(C#Cc2cccnc2)n1", "note": "[2-[2-(pyridin-3-yl)ethynyl]-6-methyl-pyridine]", "values": [{"measurement": "inflammatory skin reddening and infiltration", "setting": "[1]", "result": "is not inhibited"}, {"measurement": "signs of pruritus (scoring of excoriations)", "setting": "[1]", "result": "inhibits signs of pruritus"}]}, {"smiles": "Cc1cccc(C#Cc2ccccc2)n1", "note": "[2-methyl-6-phenylethynyl-pyridine]", "values": [{"measurement": "duration of scratching episodes induced by the pruritic agent", "setting": "[2]", "result": "significantly decreases"}]}]}
